# In US9963463B2, “Urea-substituted indanes as P38 map kinase inhibitors” (TORRENT PHARMACEUTICALS LIMITED, priority 2014, dated 2018):
# Molecular target: T1, purified recombinant human p38 alpha MAPK (Homo sapiens, UniProt Q16539)
# T1 construct: purchased Millipore, USA
# Experiment: Inhibition of p38 alpha MAPK activity, TR-FRET kinase assay
# Assay type: biochemical
# Conditions: Concentration 1 μM; read-out: P38α Inhibition
# Experimental: Inhibition of p38 Alpha MAPK Activity: Time-Resolved Fluorescence Resonance Energy Transfer Kinase Standard Assay (TR-FRET Assay)
# Compounds of present invention at various concentrations were premixed with DMSO. The experiment was initiated by mixing 0.5%-1.0% DMSO as vehicle/compounds with purified recombinant human p38 alpha MAPK (Millipore, USA) in the wells and 15 min incubation at room temperature. Thereafter, 30 nM of Biotinylated GST-ATF2 (Activation transcription Factor2) and 100 μM of ATP were added in to the wells containing reaction mixture, followed by reincubation for 60 minutes at RT. Reaction was terminated by addition of 10 mM of EDTA and detection reagent containing anti-phosphotheronine ATF2 antibody (PerkinElmer®, USA) labeled with europium chelate and APC (Allophycocyanin) labeled streptavidin, into the reaction mixture which was further incubated for 60 minutes at room temperature. The degree of phosphorylation of the substrate (GST-ATF2) was measured using Envision multimode reader (PerkinElmer®). Percentage inhibition of p38 kinase activity was calculated by determining ratio of specific europium 665 nm energy transfer signal to reference 615 nm signal.
# T1 sequence (Q16539 whole entry): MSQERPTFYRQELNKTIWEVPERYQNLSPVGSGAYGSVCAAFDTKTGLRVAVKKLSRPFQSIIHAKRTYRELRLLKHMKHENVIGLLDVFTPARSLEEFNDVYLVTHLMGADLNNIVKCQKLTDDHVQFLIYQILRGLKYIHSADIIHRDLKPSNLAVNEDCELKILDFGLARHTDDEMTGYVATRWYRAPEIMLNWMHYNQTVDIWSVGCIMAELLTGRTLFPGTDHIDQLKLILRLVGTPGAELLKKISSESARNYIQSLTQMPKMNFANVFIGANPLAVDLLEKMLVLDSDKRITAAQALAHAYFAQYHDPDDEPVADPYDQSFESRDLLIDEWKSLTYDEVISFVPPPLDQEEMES
row,Compound,inhibition at 1 µM [%]
1,"CC(C)(C)c1cc(NC(=O)Nc2ccc(OCC(=O)N3CCn4c(nnc4-c4ccccc4SCCN4CCOCC4)C3)c3c2CCC3)n(-c2ccccc2)n1 [Compound 11, 1-(3-tert-butyl-1-phenyl-1H-pyrazol-5-yl)-3-(7-(2-[3-(2-{[2(morpholin-4-yl)ethyl]sulfanyl}phenyl)-5,6-dihydro[1,2,4]triazolo[4,3-a]pyrazin-7(8H)-yl]-2-oxoethoxy}-2,3-dihydro-1H-inden-4-yl)urea]",80 to 100
2,"Cc1ccc(-n2nc(C(C)(C)C)cc2NC(=O)Nc2ccc(OCCN3CCN(Cc4ccccc4)C(=O)C3)c3c2CCC3)cc1 [Compound 16, 1-{7-[2-(4-benzyl-3-oxopiperazin-1-yl)ethoxy]-2,3-dihydro-1H-inden-4-yl}-3-[3-tert-butyl-1-(4-methylphenyl)-1H-pyrazol-5-yl]urea]",80 to 100
3,"COc1ccccc1-c1nnc2n1CCN(C(=O)COc1ccc(NC(=O)Nc3cc(C(C)(C)C)nn3-c3ccccc3)c3c1CCC3)C2 [Compound 5, 1-(3-tert-butyl-1-phenyl-1H-pyrazol-5-yl)-3-(7-{2-[3-(2-methoxyphenyl)-5,6-dihydro[1,2,4]triazolo[4,3-a]pyrazin-7(8H)-yl]-2-oxoethoxy}-2,3-dihydro-1H-inden-4-yl)urea]",80 to 100
4,"Cc1ccc(-n2nc(C(C)(C)C)cc2NC(=O)Nc2ccc(OCCN3CCn4c(nnc4C4CCCCC4)C3)c3c2CCC3)cc1 [Compound 68, 1-[3-tert-butyl-1-(4-methylphenyl)-1H-pyrazol-5-yl]-3-{7-[2-(3-cyclohexyl-5,6-dihydro[1,2,4]triazolo[4,3-a]pyrazin-7(8H)-yl)ethoxy]-2,3-dihydro-1H-inden-4-yl}urea]",40 to 60
5,"COc1ccc(-c2nnc3n2CCN(C(=O)COc2ccc(NC(=O)Nc4cc(C(C)(C)C)nn4-c4ccccc4)c4c2CCC4)C3)cc1Cl [Compound 58, 1-(3-tert-butyl-1-phenyl-1H-pyrazol-5-yl)-3-(7-{2-[3-(3-chloro-4-methoxyphenyl)-5,6-dihydro[1,2,4]triazolo[4,3-a]pyrazin-7(8H)-yl]-2-oxoethoxy}-2,3-dihydro-1H-inden-4-yl)urea]",40 to 60
6,"COc1c(NC(=O)Nc2ccc(OCCN3CCn4c(nnc4-c4cccc5ccccc45)C3)c3c2CCC3)cc(C(C)(C)C)cc1NS(C)(=O)=O [Compound 74, N-(5-tert-butyl-2-methoxy-3-{[(7-{2-[3-(naphthalen-1-yl)-5,6-dihydro[1,2,4]triazolo[4,3-a]pyrazin-7(8H)-yl]ethoxy}-2,3-dihydro-1H-inden-4-yl)carbamoyl]amino}phenyl)methanesulfonamide]",60 to 80
7,"CC(C)(C)c1cc(NC(=O)Nc2ccc(OCCN3CCN(CC4CC4)C(=O)C3)c3c2CCC3)n(-c2ccc(O)cc2)n1 [Compound 18, 1-[3-tert-butyl-1-(4-hydroxyphenyl)-1H-pyrazol-5-yl]-3-(7-{2-[4-(cyclopropylmethyl)-3-oxopiperazin-1-yl]ethoxy}-2,3-dihydro-1H-inden-4-yl)urea]",80 to 100
8,"COc1cc(-n2nc(C(C)(C)C)cc2NC(=O)Nc2ccc(OCCN3CCN(CC4CC4)C(=O)C3)c3c2CCC3)cc(OC)c1OC [Compound 70, 1-[3-tert-butyl-1-(3,4,5-trimethoxyphenyl)-1H-pyrazol-5-yl]-3-(7-{2-[4-(cyclopropylmethyl)-3-oxopiperazin-1-yl]ethoxy}-2,3-dihydro-1H-inden-4-yl)urea]",40 to 60
9,"Cc1ccc(-n2nc(C(C)(C)C)cc2NC(=O)Nc2ccc(OCCCN3CCN(CC4CC4)C(=O)C3)c3c2CCC3)cc1 [Compound 28, 1-[3-tert-butyl-1-(4-methylphenyl)-1H-pyrazol-5-yl]-3-(7-{3-[4-(cyclopropylmethyl)-3-oxopiperazin-1-yl]propoxy}-2,3-dihydro-1H-inden-4-yl)urea]",80 to 100
10,"CC(=O)Nc1cc2c(s1)CCN(C(=O)COc1ccc(NC(=O)Nc3cc(C(C)(C)C)nn3-c3ccc(C4CCCCC4)cc3)c3c1CCC3)C2 [Compound 55, N-[5-({[7-({[3-tert-butyl-1-(4-cyclohexylphenyl)-1H-pyrazol-5-yl]carbamoyl}amino)-2,3-dihydro-1H-inden-4-yl]oxy}acetyl)-4,5,6,7-tetrahydrothieno[3,2-c]pyridin-2-yl]acetamide]",< 20
11,"CCCN1CCN(CCOc2ccc(NC(=O)Nc3cc(C(C)(C)C)nn3-c3ccc(C)cc3)c3c2CCC3)CC1=O [Compound 59, 1-[3-tert-butyl-1-(4-methylphenyl)-1H-pyrazol-5-yl]-3-{7-[2-(3-oxo-4-propylpiperazin-1-yl)ethoxy]-2,3-dihydro-1H-inden-4-yl}urea]",60 to 80
12,"CCCSc1ccccc1-c1nnc2n1CCN(CCOc1ccc(NC(=O)Nc3cc(C(C)(C)C)cc(NS(C)(=O)=O)c3OC)c3c1CCC3)C2 [Compound 42, N-[5-tert-butyl-2-methoxy-3-({[7-(2-{3-[2-(propylsulfanyl)phenyl]-5,6-dihydro[1,2,4]triazolo[4,3-a]pyrazin-7(8H)-yl}ethoxy)-2,3-dihydro-1H-inden-4-yl]carbamoyl}amino)phenyl]methanesulfonamide]",80 to 100
13,"CCc1ccc(-n2nc(C(C)(C)C)cc2NC(=O)Nc2ccc(OCCN3CCn4c(nnc4-c4ccccc4OC)C3)c3c2CCC3)cc1 [Compound 23, 1-[3-tert-butyl-1-(4-ethylphenyl)-1H-pyrazol-5-yl]-3-(7-{2-[3-(2-methoxyphenyl)-5,6-dihydro[1,2,4]triazolo[4,3-a]pyrazin-7(8H)-yl]ethoxy}-2,3-dihydro-1H-inden-4-yl)urea]",80 to 100
14,"CC(C)(C)c1ccc(-n2nc(C(C)(C)C)cc2NC(=O)Nc2ccc(OCC(=O)N3CCn4c(nnc4C(F)(F)F)C3)c3c2CCC3)cc1 [Compound 2, 1-[3-tert-butyl-1-(4-tert-butylphenyl)-1H-pyrazol-5-yl]-3-(7-{2-oxo-2-[3-(trifluoromethyl)-5,6-dihydro[1,2,4]triazolo[4,3-a]pyrazin-7(8H)-yl]ethoxy}-2,3-dihydro-1H-inden-4-yl)urea]",20 to 40
15,"Cc1ccc(-n2nc(C(C)(C)C)cc2NC(=O)Nc2ccc(OCCN3CCn4c(nnc4-c4ccccc4OCCN4CCOCC4)C3)c3c2CCC3)cc1 [Compound 20, 1-[3-tert-butyl-1-(4-methylphenyl)-1H-pyrazol-5-yl]-3-(7-{2-[3-{2-[2-(morpholin-4-yl)ethoxy]phenyl}-5,6-dihydro[1,2,4]triazolo[4,3-a]pyrazin-7(8H)-yl]ethoxy}-2,3-dihydro-1H-inden-4-yl)urea]",80 to 100
16,"CCS(=O)(=O)Nc1cc(C(C)(C)C)cc(NC(=O)Nc2ccc(OCCN3CCn4c(nnc4-c4cc(Cl)ccc4O)C3)c3c2CCC3)c1OC [Compound 51, N-(5-tert-butyl-3-{[(7-{2-[3-(5-chloro-2-hydroxyphenyl)-5,6-dihydro[1,2,4]triazolo[4,3-a]pyrazin-7(8H)-yl]ethoxy}-2,3-dihydro-1H-inden-4-yl)carbamoyl]amino}-2-methoxyphenyl)ethanesulfonamide]",80 to 100
17,"CCCCN1CCN(CCOc2ccc(NC(=O)Nc3cc(C(C)(C)C)cc(NS(C)(=O)=O)c3OC)c3c2CCC3)CC1=O [Compound 44, N-{5-tert-butyl-3-[({7-[2-(4-butyl-3-oxopiperazin-1-yl)ethoxy]-2,3-dihydro-1H-inden-4-yl}carbamoyl)amino]-2-methoxyphenyl} methanesulfonamide]",80 to 100
18,"CC(C)(C)c1cc(NC(=O)Nc2ccc(OCCN3CCn4c(nnc4-c4ccccc4O)C3)c3c2CCC3)n(-c2ccc(O)c(Cl)c2)n1 [Compound 26, 1-[3-tert-butyl-1-(3-chloro-4-hydroxyphenyl)-1H-pyrazol-5-yl]-3-(7-{2-[3-(2-hydroxyphenyl)-5,6-dihydro[1,2,4]triazolo[4,3-a]pyrazin-7(8H)-yl]ethoxy}-2,3-dihydro-1H-inden-4-yl)urea]",80 to 100
19,"CC(C)(C)c1cc(NC(=O)Nc2ccc(OCCN3CCn4c(nnc4C4CCCCC4)C3)c3c2CCC3)n(-c2ccc(O)c(Cl)c2)n1 [Compound 65, 1-[3-tert-butyl-1-(3-chloro-4-hydroxyphenyl)-1H-pyrazol-5-yl]-3-{7-[2-(3-cyclohexyl-5,6-dihydro[1,2,4]triazolo[4,3-a]pyrazin-7(8H)-yl)ethoxy]-2,3-dihydro-1H-inden-4-yl}urea]",20 to 40
20,"CSc1ccccc1-c1nnc2n1CCN(CCOc1ccc(NC(=O)Nc3cc(C(C)(C)C)nn3-c3ccc(O)c(Cl)c3)c3c1CCC3)C2 [Compound 24, 1-[3-tert-butyl-1-(3-chloro-4-hydroxyphenyl)-1H-pyrazol-5-yl]-3-[7-(2-{3-[2-(methylsulfanyl)phenyl]-5,6-dihydro[1,2,4]triazolo[4,3-a]pyrazin-7(8H)-yl}ethoxy)-2,3-dihydro-1H-inden-4-yl]urea]",80 to 100
21,"CC(C)(C)c1cc(NC(=O)Nc2ccc(OCCN3CCN(CC4CC4)C(=O)C3)c3c2CCC3)n(-c2ccc(F)cc2)n1 [Compound 60, 1-[3-tert-butyl-1-(4-fluorophenyl)-1H-pyrazol-5-yl]-3-(7-{2-[4-(cyclopropylmethyl)-3-oxopiperazin-1-yl]ethoxy}-2,3-dihydro-1H-inden-4-yl)urea]",60 to 80
22,"Cc1ccc(-n2nc(C(C)(C)C)cc2NC(=O)Nc2ccc(OCCN3CCn4c(nnc4-c4cccc5ccccc45)C3)c3c2CCC3)cc1 [Compound 67, 1-[3-tert-butyl-1-(4-methylphenyl)-1H-pyrazol-5-yl]-3-(7-{2-[3-(naphthalen-1-yl)-5,6-dihydro[1,2,4]triazolo[4,3-a]pyrazin-7(8H)-yl]ethoxy}-2,3-dihydro-1H-inden-4-yl)urea]",60 to 80
